Measured values from PMC12285096, “Tirzepatide mitigates Stroke-Induced Blood-Brain barrier disruption by modulating Claudin-1 and C/EBP-α pathways” (Molecular Medicine, 2025).

What was measured:
[1] = test system: blood-brain barrier of MCAO mice; assay: BBB permeability assay, 14C-sucrose influx in mice; type: in vivo, mouse; settings: for BBB permeability (14C-sucrose), relative to Sham = 100: C/EBP-α experiment, MCAO 272.1%, Fig. 5B; for 14C-sucrose influx rate (Ki), right cerebral hemisphere: n = 6, mean ± SD
Description: To evaluate the therapeutic function of TZP against IS, four groups were divided: Sham, TZP, MCAO, and MCAO + TZP groups. In the Sham and MCAO groups, normal saline was intraperitoneally administered to sham-operated and MCAO-operated wide-type (WT) mice once a week for 8 weeks, respectively. In the TZP and MCAO + TZP groups, sham-operated and MCAO-operated WT mice were intraperitoneally administered with 10 nmol/kg TZP once a week for 8 weeks, respectively. To confirm the involvement of C/EBPα in the function of TZP, four groups were divided: Sham, MCAO, MCAO + TZP, and MCAO + C/EBP-α-/- + TZP. Administrations in the Sham, MCAO, and MCAO + TZP groups were described above. MCAO-operated C/EBP-α-/- mice in the MCAO + C/EBP-α-/- + TZP group received an intraperitoneal injection of 10 nmol/kg TZP every week for eight weeks. ^14C-sucrose (1 µCi, i.v.) was administered, and brain uptake was measured after 10 min. The influx rate (Ki, µL/g/min) was calculated as [^14C-sucrose]brain (dpm/g)/[^14C-sucrose]plasma (dpm/mL) × time (min).

[2] = in vivo; settings: mouse, ip, 10 nmol/kg
Method: TZP concentrations were measured in plasma and brain from Sham, TZP, MCAO, and MCAO + TZP groups (n = 6 per group) after 8 weeks of treatment (TZP: 10 nmol/kg, saline: 0.1 mL, i.p., weekly). At 24 h post-final dose, mice were anesthetized (xylazine 8 mg/kg, ketamine 140 mg/kg, i.p.). Plasma was collected via cardiac puncture (0.5 mL, heparinized tubes) and centrifuged (3,000 × g, 10 min, 4 °C). The right cerebral hemisphere was harvested, rinsed in cold saline, weighed, and homogenized in 1 mL PBS with 1% protease inhibitor. Homogenates were centrifuged (10,000 × g, 15 min, 4 °C). TZP was quantified by LC-MS/MS using a Shimadzu LC-20AD system and AB Sciex QTRAP 5500. Samples were diluted 1:10 in acetonitrile with internal standard (semaglutide-d6, 10 ng/mL), separated on a C18 column (2.1 × 100 mm, 1.8 μm), and detected via multiple reaction monitoring (MRM). Calibration curves (0.1–100 ng/mL, r² > 0.99) ensured linearity. Kp, brain was calculated as [TZP]brain (ng/mL, converted from ng/g)/[TZP]plasma (ng/mL). Sham and MCAO groups (no TZP) served as controls. Liraglutide’s Kp, brain was cited from the literature (Rhea et al. [2024]).

[3] = test system: HBMVECs; assay: FITC-dextran permeation across OGD/R-challenged HBMVECs; type: cell-based, human
Method: HBMVECs were sourced from ATCC (USA). These cells were cultivated in a medium specifically designed for endothelial cultures, enriched with 10% FBS, and maintained in an incubator set at a temperature of 37 °C with 5% CO2. For OGD/R modeling, the culture medium was replaced with a serum-free, glucose-free medium, and then it was placed in a hypoxic environment (1% O2, 5% CO2, 94% N2) at a 37 °C incubator for 10 h. After 10 h, the normal medium containing serum was added, and the normal oxygen supply was restored. The cells were then kept in a 37 °C constant temperature incubator for 24 h of reoxygenation. To silence C/EBP-α, HBMVECs were transduced with adenovirus harboring a short hairpin RNA (shRNA) specifically designed to knock down C/EBP-α (Ad-viral sh-C/EBP-α) for 48 h. A serum-free medium was used to dilute FITC-dextran to various concentrations for the establishment of a calibration curve. Subsequently, HBMVECs were cultured in the upper section of the Transwell setup. Thereafter, 100 µL of a 1 mg/mL FITC-conjugated dextran solution was added to the upper section and allowed to rest for 1 h in a shielded environment at 37 °C with 5% CO2. Post incubation, 100 µL of fluid was drawn from the lower section, and the luminescence intensity of the fluid in the lower section was quantified using a luminescence photometer (494/520 nm). Regarding the calibration curve and the observed luminescence intensity, the permeation level of FITC-dextran across the Transwell chamber was computed (µg/mL).

[4] = test system: HBMVECs; assay: TEER of OGD/R-challenged HBMVECs; type: cell-based, human
Method: HBMVECs were sourced from ATCC (USA). These cells were cultivated in a medium specifically designed for endothelial cultures, enriched with 10% FBS, and maintained in an incubator set at a temperature of 37 °C with 5% CO2. For OGD/R modeling, the culture medium was replaced with a serum-free, glucose-free medium, and then it was placed in a hypoxic environment (1% O2, 5% CO2, 94% N2) at a 37 °C incubator for 10 h. After 10 h, the normal medium containing serum was added, and the normal oxygen supply was restored. The cells were then kept in a 37 °C constant temperature incubator for 24 h of reoxygenation. To silence C/EBP-α, HBMVECs were transduced with adenovirus harboring a short hairpin RNA (shRNA) specifically designed to knock down C/EBP-α (Ad-viral sh-C/EBP-α) for 48 h. Approximately 100,000 cells were nurtured in the upper section of the Transwell device. Once the cells had bonded to the container surfaces, TEER values across each group were determined utilizing an impedance meter (Millipore, United States) after 24 h.

CC[C@H](C)[C@H](NC(=O)[C@H](CC(C)C)NC(=O)[C@H](Cc1c[nH]c2ccccc12)NC(=O)[C@H](CCC(N)=O)NC(=O)[C@@H](NC(=O)[C@H](Cc1ccccc1)NC(=O)[C@H](C)NC(=O)[C@H](CCCCNC(=O)COCCOCCNC(=O)COCCOCCNC(=O)CC[C@H](NC(=O)CCCCCCCCCCCCCCCCCCC(=O)O)C(=O)O)NC(=O)[C@H](CCC(N)=O)NC(=O)[C@H](C)NC(=O)[C@@H](NC(=O)[C@H](CCCCN)NC(=O)[C@H](CC(=O)O)NC(=O)[C@H](CC(C)C)NC(=O)C(C)(C)NC(=O)[C@@H](NC(=O)[C@H](CO)NC(=O)[C@H](Cc1ccc(O)cc1)NC(=O)[C@H](CC(=O)O)NC(=O)[C@H](CO)NC(=O)[C@@H](NC(=O)[C@H](Cc1ccccc1)NC(=O)[C@@H](NC(=O)CNC(=O)[C@H](CCC(=O)O)NC(=O)C(C)(C)NC(=O)[C@@H](N)Cc1ccc(O)cc1)[C@@H](C)O)[C@@H](C)O)[C@@H](C)CC)[C@@H](C)CC)C(C)C)C(=O)N[C@@H](C)C(=O)NCC(=O)NCC(=O)N1CCC[C@H]1C(=O)N[C@@H](CO)C(=O)N[C@@H](CO)C(=O)NCC(=O)N[C@@H](C)C(=O)N1CCC[C@H]1C(=O)N1CCC[C@H]1C(=O)N1CCC[C@H]1C(=O)N[C@@H](CO)C(N)=O [TZP, Tirzepatide]
BBB permeability (14C-sucrose), relative to Sham = 100 ([1]; MCAO + TZP, WT mice): 141.9% | BBB permeability (14C-sucrose), relative to Sham = 100 ([1]; TZP-treated MCAO C/EBP-α-/- mice): 205.7% | 14C-sucrose influx rate (Ki), right cerebral hemisphere ([1]; MCAO + TZP group (10 nmol/kg i.p. weekly, 8 weeks), MCAO 2.582 ± 0.156, P < 0.005 vs. MCAO): 1.447 ± 0.103 µL/g/min | 14C-sucrose influx rate (Ki), right cerebral hemisphere ([1]; TZP group (sham-operated, 10 nmol/kg i.p. weekly, 8 weeks), Sham 1.00 ± 0.028, P = 0.89 vs. Sham): 0.995 ± 0.032 µL/g/min | tissue level at time at 24 h ([2]; Brain concentration of TZP): 9.6 ± 1.2 ng/g | level at 24 h ([2]; Plasma concentration of TZP): 80.2 ± 10.1 ng/mL | FITC concentrations in the lower chamber (FITC-dextran permeation) ([3]; OGD/R + 50 nM TZP, 24 h, control 0.41, OGD/R 1.15, Fig. 6A): 0.83 mg/mL | FITC concentrations in the lower chamber (FITC-dextran permeation) ([3]; OGD/R + 100 nM TZP, 24 h, control 0.41, OGD/R 1.15, Fig. 6A): 0.57 mg/mL | FITC concentrations in the lower chamber (FITC-dextran permeation) ([3]; sh-C/EBP-α experiment, OGD/R + TZP (100 nM), control 0.42, OGD/R 1.03, Fig. 9B): 0.61 mg/mL | FITC concentrations in the lower chamber (FITC-dextran permeation) ([3]; sh-C/EBP-α experiment, OGD/R + sh-C/EBP-α + TZP (100 nM), control 0.42, OGD/R 1.03, Fig. 9B): 0.93 mg/mL | TEER values ([4]; OGD/R + 50 nM TZP, 24 h, control 191.3, OGD/R 115.3, Fig. 6B): 145.3 Ω.cm² | TEER values ([4]; OGD/R + 100 nM TZP, 24 h, control 191.3, OGD/R 115.3, Fig. 6B): 172.9 Ω.cm² | TEER values ([4]; sh-C/EBP-α experiment, OGD/R + TZP (100 nM), control 187.4, OGD/R 113.5, Fig. 9C): 175.6 Ω.cm² | TEER values ([4]; sh-C/EBP-α experiment, OGD/R + sh-C/EBP-α + TZP (100 nM), control 187.4, OGD/R 113.5, Fig. 9C): 138.2 Ω.cm²
